Laboratory results published in US11691989B2, “Macrocyclic indoles as Mcl-1 inhibitors” (ASCENTAGE PHARMA (SUZHOU) CO., LTD., priority 2018, dated 2023).

Assays:
[1] = target: Mcl-1 protein (residues 171-323) (Homo sapiens (Human), UniProt Q07820); assay: Inhibition of Mcl-1 by fluorescence polarization (FP) competitive binding assay with FAM-Bid tracer; conditions: 2 nM FAM-Bid, 20 nM Mcl-1, 30 min, read-out: Mc1-1 (FP)
Description: Inhibition of Mcl-1 by fluorescence polarization (FP) assay.
The method used a fluorescein labelled peptide (FAM-Bid) which binds to the Mcl-1 protein leading to an increased anisotropy measured in milli-polarization (mP) values using a plate reader.
A 10-points serial dilution of each compound was prepared in DMSO and 5 μL solution was transferred into flat bottomed, 96-well back plate (final DMSO concentration 5%). 120 μL of Buffer (PBS, 0.01% BGG (Sigma Cat. #SRE0011), 0.01% Triton X-100), containing the Fluorescein labelled peptide (Final concentration 2 nM) and Mcl-1 protein (final concentration 20 nM) was then added. […] 10-points dose response curves were plotted with GraphPad software using Sigmoidal Dose-Response Model and the IC50 values were determined by nonlinear regression fitting of the competition curves.

OPM-2 cells = assay: Cell viability assay (OPM-2 cells), CCK-8; format: cell-based; conditions: Homo sapiens, OPM-2, 24 h, 5% FBS
Description: Cell Viability Assay (OPM-2 cells)
OPM-2 cells were obtained from Deutsche Sammlung von Mikroorganismen and Zellkulturen GmbH (DSMZ). Cells were maintained in the recommended culture medium with 10% FBS at 37° C. and an atmosphere of 5% CO2.
The effect of representative Compounds of the Disclosure on cell viability was determined using Cell Counting Kit-8 (CCK-8) assay (Shanghai Life iLab Bio Technology) according to the manufacturer's instructions. Each tested compound was serially diluted in culture medium, 100 μL of the compound dilution was added into 96-well plates. 100 μL of an OPM-2 cell suspension (20000 cells/well) in culture medium were seeded into the corresponding well of the plate and the cells were incubated at 37° C. in an atmosphere of 5% CO2 for 24 hours. In the next day, 20 μL of CCK-8 solution was added to each well of the plate and incubated for 4 hours.
The plates were read at 450 nm on the microplate spectrophotometer (SpectraMax plus 384, Molecular devices). The readings were normalized to the vehicle cells, and the IC50 was calculated by nonlinear regression analysis using GraphPad Prism 6 software.

[2] = Microsome clearance assay, rat; format: in vitro ADME; conditions: male, Wister, rat, pooled liver microsomes, pH 7.4, rat liver microsomes, 0.5 mg/ml protein, 1 mM NADPH, 60 minutes, read-out: Rat Liver Microsome Clint (μL/min/mg protein)
Description: (§1) Representative Compounds of the Disclosure were tested in a microsome clearance assay. Pooled liver microsomes (20 mg/ml) from human, male Wister rat, and male CD-1 mouse were obtained from BD Bioscience (Franklin Lakes, N.J. USA). Incubation reaction mixtures contained a final concentration of 0.1M sodium phosphate buffer (pH 7.4), 0.5 mg/ml microsomal protein, 5 μM of test sample and 1 mM NADPH in a total volume of 400 μl. The incubations were done for 60 minutes and 300 μl of the mixtures was transferred to 150 μl of ice cold methanol to terminate reactions. After vortexes for 3 minutes and centrifuged at 4000 rpm at 4° C. for 10 minutes, the clear supernatant was used directly for analysis. The samples were analyzed by Applied Biosystems API 3200 Q TRAP LC/MS/MS system using electrospray ionization mode.

[3] = Microsome clearance assay, human; format: in vitro ADME; conditions: human, pooled liver microsomes, pH 7.4, human liver microsomes, 0.5 mg/ml protein, 1 mM NADPH, 60 minutes, read-out: Human Liver Microsome Clint (μL/min/mg protein)
Description: as §1

[4] = Microsome clearance assay, mouse; format: in vitro ADME; conditions: male, CD-1, mouse, pooled liver microsomes, pH 7.4, mouse liver microsomes, 0.5 mg/ml protein, 1 mM NADPH, 60 minutes, read-out: Mouse Liver Microsome Clint (μL/min/mg protein)
Description: as §1

NCI-H929 cells = assay: Cell viability assay (NCI-H929 cells), CCK-8; format: cell-based; conditions: Homo sapiens, NCI-H929, 24 h, 5% FBS
Description: Cell Viability Assay (NCI-H929 cells)
NCI-H929 cells were obtained from American Type Culture Collection (ATCC). Cells were maintained in the recommended culture medium (RPMI 1640) with 10% FBS and 0.05 mM BME at 37° C. and an atmosphere of 5% CO2.
The effect of Compounds on cell viability was determined using Cell Counting Kit-8 (CCK-8) assay according to the manufacturer's instructions. 95 μL of NCI-H929 cell suspension (20000 cells/well) in culture medium were seeded into 96-well plates and cultured 4 hrs. Each tested compound was serially diluted in DMSO, then 5 μL of the compound or DMSO was diluted in 95 μL medium once more. At last, 5 μL of the compound dilution was added to the corresponding well of the cell plate. After the addition of the tested compound, the cells were incubated at 37° C. in an atmosphere of 5% CO2 for 24 hrs. At the end, 10 μL of CCK-8 solution was added to each well of the plate and incubated for 1-4 hours. The plates were read at 450 nm on the microplate reader (BioTek Synergy 1MF). The readings were normalized to the vehicle cells, and the IC50 was calculated by nonlinear regression analysis using GraphPad Prism 6 software.

Mcl-1 protein (residues 171-323), sequence (Q07820 171-323): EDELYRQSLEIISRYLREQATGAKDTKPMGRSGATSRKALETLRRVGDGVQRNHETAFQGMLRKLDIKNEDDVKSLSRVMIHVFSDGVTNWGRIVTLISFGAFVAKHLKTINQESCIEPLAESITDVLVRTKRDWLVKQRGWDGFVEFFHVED

| Structure (SMILES) | IC50 [1] | IC50 (OPM-2 cells) | microsomal CLint at 5 μM [2] | microsomal CLint at 5 μM [3] | microsomal CLint at 5 μM [4] | IC50 (NCI-H929 cells) |
| --- | --- | --- | --- | --- | --- | --- |
| CC(=O)NCc1c(C(=O)O)n2c3ccc(Cl)c(c13)-c1c(nn(C)c1C)CSCc1cc(n(C)n1)CSc1cc(c3ccccc3c1)OCCC2 [Cpd. No. 12, (Z)-1^3-(acetamidomethyl)-1^5-chloro-2^1,2^5,6^1-trimethyl-1^1H,2^1H,6^1E-10-oxa-4,8-dithia-1(4,1)-indola-2(4,3),6(3,5)-dipyrazola-9(3,1)-naphthalenacyclotridecaphane-1^2-carboxylic acid] | 18 nM | 9860 nM | 30.6 µL/min/mg | 3.6 µL/min/mg | 13.8 µL/min/mg | 273 nM |
| Cc1ccc2c3c(C)c(C(=O)O)n2CCCOc2cc(cc4cc(F)ccc24)SCc2cc(nn2C)CSCc2nn(C)c(C)c2-c13 [Cpd. No. 22, (Z)-9^6-fluoro-1^3, 1^5,2^1,2^5,6^1-pentamethyl-1^1H,2^1H,6^1H-10-oxa-4,8-dithia-1(4,1)-indola-2(4,3), 6(3,5)-dipyrazola-9(3,1)-naphthalenacyclotridecaphane-1^2-carboxylic acid] | 15 nM | 73 nM | 30.8 µL/min/mg | 11.8 µL/min/mg | 32 µL/min/mg | 61 nM |
| Cc1c2c(nn1C)CSCc1cc(n(C)n1)CSc1cc(c3ccc(F)cc3c1)OCCCn1c(C(=O)O)c(CN(C)S(=O)(=O)C(F)(F)F)c3c-2c(Cl)ccc31 [Cpd. No. 23, (Z)-1^5-chloro-9^6-fluoro-2^1,2^5,6^1-trimethyl-1^3-(((1,1,1-trifluoro-N-methylmethyl)sulfonamido)methyl)-1^1H,2^1H,6^1H-10-oxa-4,8-dithia-1(4,1)-indola-2(4,3),6(3,5)-dipyrazola-9(3,1)-naphthalenacyclotridecaphane-1^2-carboxylic acid] | 16 nM | 1870 nM | 30.4 µL/min/mg | 48.2 µL/min/mg | 52.4 µL/min/mg | 1070 nM |
| Cc1c2c(nn1C)CSCc1cc(n(C)n1)CSc1cc(c3ccc(F)cc3c1)OCCCn1c(C(=O)O)c(C(F)(F)F)c3c-2c(Cl)ccc31 [Cpd. No. 24, (Z)-1^5-chloro-9^6-fluoro-2^1,2^5,6^1-trimethyl-1^3-(trifluoromethyl)-1^1H,2^1H,6^1H-10-oxa-4,8-dithia-1(4,1)-indola-2(4,3),6(3,5)-dipyrazola-9(3,1)-naphthalenacyclotridecaphane-1^2-carboxylic acid] | 15 nM | 5420 nM | 122 µL/min/mg | 21.8 µL/min/mg | 28.8 µL/min/mg | 3040 nM |
| Cc1nn(C)c2c1-c1c(Cl)ccc3c1c(C)c(C(=O)O)n3CCCOc1cc(cc3cc(F)ccc13)SCc1cc(nn1C)CSC2 [Cpd. No. 28, (Z)-1^5-chloro-9^6-fluoro-1^3,2^1,2^3,6^1-tetramethyl-1^1H,2^1H,6^111-10-oxa-4,8-dithia-1(4,1)-indola-2(4,5),6(3,5)-dipyrazola-9(3,1)-naphthalenacyclotridecaphane-1^2-carboxylic acid] | 14 nM | 66 nM | 38.4 µL/min/mg | 42.8 µL/min/mg | 116 µL/min/mg | 47 nM |
| Cc1c(C(=O)O)n2c3ccc(Cl)c(c13)-c1c(nn3c1COCC3)CN(S(=O)(=O)c1ccccc1)Cc1cc(n(C)n1)CSc1cc(c3ccc(F)cc3c1)OCCC2 [Cpd. No. 29, (Z)-1^5-chloro-9^6-fluoro-1^3, 6^1-di methyl-4-(phenylsulfonyl)-26,27-dihydro-1^1H,2^4H,6^1H-10-oxa-8-thia-4-aza-2(3,2)-pyrazolo[5,1-c][1,4]oxazina-1(4,1)-indola-6(3,5)-pyrazola-9(3,1)-naphthalenacyclotridecaphane-1^2-carboxylic acid] | 35 nM | 1900 nM | 42 µL/min/mg | 21.4 µL/min/mg | 54.6 µL/min/mg | 621 nM |
